Consider 5 compounds from the NIST ThermoML archive (doi:10.1021/acs.jced.7b00613).

A word on the refractive index: it is a measure of how strongly the sample bends light. For orientation: mass density means mass per unit of volume. By vapor or sublimation pressure is commonly meant the pressure of vapour in equilibrium with the condensed phase.

The nature of data set [1]: refractive index (Na D-line) (dimensionless). To be noted: 293.15 K; 101.33 kPa; Liquid; Standard Abbe refractometry.
For data set [2] the following is noted: Liquid; for mass density: 293.15 K, 101.33 kPa, Vibrating tube method; for vapor or sublimation pressure: 278.15 K, Closed cell (Static) method.

± gives the expanded uncertainty stated by the source.

Take `CC(C)CC(C)(C)C` [2,2,4-trimethylpentane]: the refractive index in data set [1] is listed as 1.391 ± 0.001. For the same compound, in data set [2], the mass density is on record as 692 ± 1 kg/m3. Turning to `O=C=O` [carbon dioxide], the “vapor or sublimation pressure” value in data set [2] was determined as 3962 ± 18 kPa. As to `CC` [ethane], the “vapor or sublimation pressure” value in data set [2] came to 2699 ± 14 kPa. Consider `CCCCCC` [hexane], for which, in data set [1], the refractive index came out at 1.375 ± 0.001. Also, the mass density in data set [2] is reported as 660 ± 1 kg/m3. The like results for `CCCCCCCC` [octane] were, in that order, 1.396 ± 0.001 and 703 ± 1 kg/m3.
